Measurements from patent US20160000775A1, “USE OF HIGH DOSE LAQUINIMOD FOR TREATING MULTIPLE SCLEROSIS” (Teva Pharmaceutical Industries, Ltd., priority 2012, published 2016).
Where two headings read alike, the source gives them in different places.

How the values were obtained:
[1] = system: subjects with RRMS; assay: ALLEGRO Phase III clinical trial, laquinimod 0.6 mg over placebo, double-blind; assay type: in vivo, human; conditions: laquinimod 0.6 mg vs placebo, 24 months
Method: ALLEGRO and BRAVO are two clinical trials reported in, e.g., PCT International Application Publication No. WO/2010/147665 ([…] et al.). ALLEGRO was a study performed in subjects with RRMS to assess the efficacy, safety and tolerability of laquinimod 0.6 mg over placebo in a double-blind design. The treatment duration in this study was 24 months and it enrolled 1,106 patients equally distributed between laquinimod 0.6 mg and placebo arms. The primary endpoint was annualized relapse rate (ARR). Secondary endpoints were gadolinium-enhancing (GdE)-T1 and new-T2 lesions, time to Expanded Disability Status Scale (EDSS) progression confirmed at 3 months and multiple sclerosis functional composite (MSFC) z-score. In ALLEGRO the primary endpoint (ARR) and three key secondary endpoints were met.

[2] = system: subjects with RRMS; assay: BRAVO Phase III clinical trial, laquinimod 0.6 mg over placebo with reference arm IFN-β-1a (Avonex®); assay type: in vivo, human; conditions: vs placebo, 24 months
Source text: ALLEGRO and BRAVO are two clinical trials reported in, e.g., PCT International Application Publication No. WO/2010/147665 ([…] et al.). […] The primary endpoint was ARR. Secondary endpoints were Brain atrophy, time to EDSS progression confirmed at 3 months and MSFC z-score. […] One of the basic assumptions used to assess the sample size for the study was that treatment with laquinimod will reduce the patient population ARR by 25% or more when compared to the placebo group.

[3] = system: subjects with relapsing remitting multiple sclerosis (RRMS); assay: Clinical trial MS-LAQ-305 (Phase III), oral laquinimod 0.6 mg/day or 1.2 mg/day vs placebo; assay type: in vivo, human
Method: A multinational, multicenter, randomized, double-blind, parallel-group, placebo-controlled study followed by an active treatment (clinical trial MS-LAQ-305) is conducted to evaluate the efficacy, safety and tolerability of two doses of oral administration of laquinimod (0.6 mg/day or 1.2 mg/day) laquinimod in subjects with relapsing remitting multiple sclerosis (RRMS). Study Duration • Screening period: up to 1 month. • Double-blind Placebo-controlled (DBPC) period (Period 1): At least 15 months, but not more than 24 months of once-daily, oral administration of either laquinimod 0.6 mg, 1.2 mg or matching oral placebo. DBPC period for all subjects is declared closed when all ongoing enrolled subjects complete at least 15 months of treatment. • Active-treatment (AT) period (Period 2): In this period (24 months), subjects who are assigned to either 0.6 mg or 1.2 mg daily oral laquinimod during the DBPC period continue with the same treatment assignment, whereas those who are assigned to placebo receive 1.2 mg daily oral laquinimod. Eligible subjects (approximately 1,800) are randomized in a 1:1:1 ratio into one of the following treatment arms: • 1. Laquinimod 0.6 mg: two capsules, one containing 0.6 mg laquinimod and the other containing matching placebo, administered orally once daily. • 2. Laquinimod 1.2 mg: two capsules containing 0.6 mg laquinimod administered orally once daily. • 3. Matching placebo: two capsules containing placebo (matching to the 0.6 mg) administered orally once daily. The study comprises of two treatment periods, Double-blind Placebo-controlled (DBPC) and Active-treatment (AT). Subjects who complete 24 months on study drug in Period 1 or complete at least 15 months on study drug when Period 1 is declared closed continue on to Period 2. The following assessments are performed at the specified time points: • 1. Vital signs are measured at each study visit. • 2. A physical examination is performed at months -1 (screening), 0 (baseline) 1, 3, 6, and every 6 months thereafter, ETD (if applicable) and until completion visit of Period 1. During Period 2, a physical examination is performed at months 0AT (baseline, completion visit of Period 1), 1AT, 3AT, 6AT and every 6 months thereafter, until completion/ETD of Period 2. • 3. The following safety clinical laboratory tests are performed: • (a) Complete blood count (CBC) with differential-at all scheduled visits during Periods 1 and 2. • (b) Serum chemistry (including electrolytes, liver enzymes, urea, creatinine, calculated Glomerular Filtration Rate (GFR)-at screening and prior to each MRI scan, glucose, total protein, albumin, direct and total bilirubin and pancreatic amylase)-at all scheduled visits during the DBPC and AT periods. Calculated Glomerular Filtration Rate (GFR) is done at screening and prior to each MRI scan in both study periods. • (c) Lipid profile (total cholesterol, HDL, LDL, triglycerides)-at baseline and every 12 months during the DBPC and AT periods. • (d) Urinalysis-at the screening visit. • (e) Serum β-hCG (human choriogonadotropin beta) in women of child-bearing potential-at each scheduled study visit during the DBPC and AT periods. • (f) Urine β-hCG test in women of child-bearing potential-at baseline (month 0) and at all scheduled visits during the DBPC and AT periods. • (g) Starting after visit Month 3, between scheduled visits, a rapid urine β-hCG test is performed in women of child-bearing potential every 28 (±2) days. The subject is contacted within 72 hours after the scheduled test is performed and asked specific questions regarding the test. In case of suspected pregnancy (positive urine β-hCG test result) the caller instructs the subject to make sure that the study drug has been discontinued and the subject arrives at the site as soon as possible (within 10 days) with all study drugs-during the DBPC and AT periods. • 4. […]

[4] = system: relapsing MS; conditions: cited from earlier work
[5] = system: MS; conditions: 0.3 mg/day oral (Comi, 2007); cited from earlier work
[6] = in vivo; cited from earlier work
[7] = corrected post-hoc analysis with two baseline MRI covariates
[8] = daily oral 1.2 mg compared to 0.6 mg laquinimod or placebo

## CCN(C(=O)c1c(O)c2c(Cl)cccc2n(C)c1=O)c1ccccc1 [Laquinimod, laquinimod]
[1]
  ARR % reduction: 23%
  Brain Atrophy (exploratory endpoint) % reduction: 32.8%
  Cumulative number of GdE T1 lesions % reduction: 37%
  Cumulative number of new T2 lesions % reduction: 30%
  EDSS Progression (3 m confirmation) % reduction: 36%
  MSFC z-score % reduction: 51%
[2]; [7]
  ARR % reduction, Corrected: 21.3%
  Brain Atrophy % reduction, Corrected: 27.4%
  Cumulative number of GdE T1 lesions % reduction, Corrected: 21.7%
  Cumulative number of new T2 lesions (exploratory endpoint) % reduction, Corrected: 18.7%
  EDSS Progression (3 m confirmation) % reduction, Corrected: 33.5%
  MSFC % reduction, Corrected: 77.1%
[2]; corrected post-hoc analysis with two baseline MRI covariates, listed as laquinimod
  ARR % reduction, Corrected: 21.3%
[2]; original analysis
  ARR % reduction, Original: 17.7%
  Brain Atrophy % reduction, Original: 27.6%
  Cumulative number of GdE T1 lesions % reduction, Original: 21.5%
  Cumulative number of new T2 lesions (exploratory endpoint) % reduction, Original: 16.5%
  EDSS Progression (3 m confirmation) % reduction, Original: 31.3%
  MSFC % reduction, Original: 77.7%
[2]; original analysis, listed as laquinimod
  ARR % reduction, Original: 17.7%
[3]; 1.2 mg/day compared to 0.6 mg/day laquinimod
  Efficacy in treating RRMS patients with respect to all endpoints: improved efficacy
[3]; 1.2 mg/day compared to 0.6 mg/day laquinimod or placebo
  Fatigue and functional status: maintained or improved
[3]; daily oral 1.2 mg compared to 0.6 mg laquinimod and placebo
  Time to first confirmed relapse: prolonged time to first confirmed relapse
[3]; [8]
  Accumulation of disability as measured by the MSFC score or Timed 25-foot walk (T25FW): reduced the accumulation of disability
  Annualized relapse rate: lower annualized relapse relate
  Brain atrophy, percent brain volume change from baseline to month 15: reduced brain atrophy
  Brain atrophy, percent change in brain volume from baseline to month 24: reduced brain atrophy
  Functional status and general health, Short-Form general health survey (SF-36): improved functional status and general health
  MRI-monitored disease activity (enhancing T1, new hypointense T1, new T2 lesion numbers and lesion volume changes): reduced MRI-monitored disease activity
  Neuroprotection: more effective in providing neuroprotection
  Number of confirmed relapses: reduced number of confirmed relapses
  Symbol Digit Modalities Test (SDMT) score: improved Symbol Digit Modalities Test (SDMT) score
  Time to Confirmed Disease Progression (CDP): prolonged time to CDP
[4]; 0.3 mg/day oral, relapsing MS (RRMS and SPMS) (Polman, 2005)
  Development of active MRI lesions: reduce development of active MRI lesions
[4]; relapsing MS, dose not stated (Polman, 2005)
  Development of active MRI lesions: reduce development of active MRI lesions
[5]
  MRI and clinical effect as compared to placebo: neither MRI nor clinical effect
[6]
  Oral bioavailability: high
